The source of these data is patent US9556193B2, “Benzimidazole hexahydrofuro[3,2-b]furan derivatives” (Merck Sharp & Dohme Corp., priority 2012, dated 2017).

The target of test [1] is T1, recombinant human AMPK complex 7 (containing α2β1γ1) (Homo sapiens, UniProt P54646+Q9Y478).
T1 construct: made in house; host or cells: Spodoptera frugiperda Sf21 cells, baculovirus, triple infection (one virus per subunit)
As to the kind of experiment: In vitro AMPK activation assay (AMPKSAMSF), complex 7. The format is biochemical. As to conditions: recombinant human AMPK complex 7 (α2β1γ1); for Emax: 10-point titration expressed as % maximum AMP activation; for EC50: inflection point reflecting 50% of the maximum activation. How it is done:
(§1) The recombinant human AMPK complex 1 (containing α1β1γ1) or AMPK complex 7 (containing α2β1γ1) was obtained from baculovirus expression system. Recombinant viruses were generated by cotransfection of AMPK/pBacPak9 clones with Baculogold baculovirus DNA (Pharmingen) in spodoptera frugiperda 21 cells according to the manufacturer's instructions. Each round of virus amplification was performed for 5 days in Grace's medium containing 10% serum. Virus that had been subjected to three rounds of amplification was used for all protein production procedures. To express the AMPK complex, sf21 cells were adapted to serum free medium (SF900 II, Invitrogen) by sequential dilution from serum containing stocks into SF900II medium and maintained in shaker flasks at 90 rpm at 27° C. The recombinant AMPK enzyme complex was produced by triple infection, one recombinant virus for each of the subunits, in sf21 cells under serum free conditions. Cells were infected in log phase, 1×10^6 cells/ml, at a multiplicity of infection of ˜5. Cells were harvested by centrifugation at 10,000×g for 15 minutes after 72 hours of infection with viruses. The insect cell pellet from 2 liters of culture was resuspended in 50 ml lysis buffer (20 mM Tris-HCl, 50 mM NaCl, 50 mM NaF, 30 mM Na PPi, 0.25 M sucrose, 10 mM ZnCl2, 2 mM DTT, 0.4 mg/ml digitonin) and subjected to two cycles of freeze-thaw lysis in a dry-ice ethanol bath. Insoluble material was removed by centrifugation at 10,000×g and the supernatant was fractionated with use of polyethylene glycol (PEG). The protein fraction precipitating between 2.5 and 6% PEG was used for further purification using a Blue-Sepharose step (Zhou et al, J. Clin. Invest. 108, 1167-1174, 2001).
(§2) The in vitro AMPK activation assay is performed in a volume of 30 μl in a 384-well plate. Enzyme reactions were assembled in the microtiter plate by adding 15 μl of 2× enzyme in assay buffer (20 mM HEPES, pH 7.3, 5 mM MgCl2, 3 mM DTT, 0.01% Brij 35 and CamK Kinase, to activate AMPK) to wells which contained either DMSO or compound. The reaction was initiated with the addition of 15 μl 2× substrate mixture containing 200 μM ATP, and 3.0 μM fluorescently labeled SAMS (5-FAM-HMRSAMSGLHLVKRR-COOH) in assay buffer. After 45-minute incubation at 25° C., the reaction was stopped by the addition of 70 μl stop buffer (100 mM HEPES, pH 7.3, 40 mM EDTA, 0.015% Brij 35). Phosphorylated 5-FAM SAMS product is assessed using a Caliper EZ Reader LabChip microfluidics reader. Product conversion is determined by calculating the peak heights of the substrate and product and reporting the product/(product+substrate) peak ratio. The 10-point titration data were expressed as % maximum AMP activation. The results were plotted using 4 parameter fit and the inflection point reflecting 50% of the maximum activation was reported as the EC50.

In test [2] the target is T2, recombinant human AMPK complex 1 (containing α1β1γ1) (Homo sapiens, UniProt Q13131+Q9Y478).
T2 construct: made in house; host or cells: Spodoptera frugiperda Sf21 cells, baculovirus, triple infection (one virus per subunit)
T2 sequence (Q13131 whole entry): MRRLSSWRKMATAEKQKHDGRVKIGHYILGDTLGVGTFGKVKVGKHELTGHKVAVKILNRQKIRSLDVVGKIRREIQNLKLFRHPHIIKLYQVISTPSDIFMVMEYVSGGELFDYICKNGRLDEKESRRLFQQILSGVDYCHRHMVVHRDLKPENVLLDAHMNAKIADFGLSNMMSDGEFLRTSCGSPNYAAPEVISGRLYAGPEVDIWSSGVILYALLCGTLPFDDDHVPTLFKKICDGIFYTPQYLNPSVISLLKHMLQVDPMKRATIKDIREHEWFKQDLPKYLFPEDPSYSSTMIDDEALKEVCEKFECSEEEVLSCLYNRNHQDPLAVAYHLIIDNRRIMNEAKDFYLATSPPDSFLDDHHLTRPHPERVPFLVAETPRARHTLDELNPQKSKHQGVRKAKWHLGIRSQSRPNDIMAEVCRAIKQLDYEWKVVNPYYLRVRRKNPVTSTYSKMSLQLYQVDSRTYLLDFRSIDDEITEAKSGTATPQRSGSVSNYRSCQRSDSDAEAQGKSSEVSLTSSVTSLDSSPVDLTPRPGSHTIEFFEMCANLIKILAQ
T2 sequence (Q9Y478 whole entry): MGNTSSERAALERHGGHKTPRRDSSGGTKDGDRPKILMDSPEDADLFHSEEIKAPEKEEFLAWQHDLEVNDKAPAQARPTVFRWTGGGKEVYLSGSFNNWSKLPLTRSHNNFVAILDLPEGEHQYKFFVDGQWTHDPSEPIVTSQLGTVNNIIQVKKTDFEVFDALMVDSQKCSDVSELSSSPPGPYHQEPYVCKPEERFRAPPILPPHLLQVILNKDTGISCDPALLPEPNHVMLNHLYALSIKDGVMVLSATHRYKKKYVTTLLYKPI
T2 sequence (P54619 whole entry partner): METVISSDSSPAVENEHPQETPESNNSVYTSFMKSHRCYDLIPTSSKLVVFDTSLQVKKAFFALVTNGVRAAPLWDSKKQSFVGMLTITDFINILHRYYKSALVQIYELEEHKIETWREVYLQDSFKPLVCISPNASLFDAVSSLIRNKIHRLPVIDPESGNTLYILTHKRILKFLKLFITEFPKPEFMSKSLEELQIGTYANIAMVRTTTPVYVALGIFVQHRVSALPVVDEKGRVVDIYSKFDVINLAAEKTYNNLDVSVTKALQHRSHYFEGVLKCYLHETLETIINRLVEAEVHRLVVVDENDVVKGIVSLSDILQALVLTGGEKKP
Nature of the test: In vitro AMPK activation assay (AMPKSAMSF), complex 1. The format is biochemical. As to conditions: recombinant human AMPK complex 1 (α1β1γ1); for % Maximum AMP Activation of human AMPK Complex 1: 10-point titration expressed as % maximum AMP activation; for EC50: inflection point reflecting 50% of the maximum activation. How it is done: as §1, §2

Test [3] concerns ob/ob and db/db mice. As to conditions: following 8 weeks of administration; cited from earlier work.

T1 sequence (P54646 whole entry): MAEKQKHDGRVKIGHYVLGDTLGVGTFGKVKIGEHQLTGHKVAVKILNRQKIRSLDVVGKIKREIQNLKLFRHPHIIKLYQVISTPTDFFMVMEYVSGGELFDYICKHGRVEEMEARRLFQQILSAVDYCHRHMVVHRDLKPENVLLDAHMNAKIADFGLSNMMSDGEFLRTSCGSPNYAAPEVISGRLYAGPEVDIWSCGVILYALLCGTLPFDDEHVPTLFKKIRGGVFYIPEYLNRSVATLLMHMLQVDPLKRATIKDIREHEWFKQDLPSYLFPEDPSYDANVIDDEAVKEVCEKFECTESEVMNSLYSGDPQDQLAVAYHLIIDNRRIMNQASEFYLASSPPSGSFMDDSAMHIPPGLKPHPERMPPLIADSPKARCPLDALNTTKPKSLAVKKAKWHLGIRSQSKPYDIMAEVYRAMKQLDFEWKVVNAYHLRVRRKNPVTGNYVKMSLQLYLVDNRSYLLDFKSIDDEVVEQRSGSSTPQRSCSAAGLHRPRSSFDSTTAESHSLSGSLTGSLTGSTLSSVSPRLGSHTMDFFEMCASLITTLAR
T1 sequence (Q9Y478 whole entry): as the sequence (Q9Y478 whole entry) above
T1 sequence (P54619 whole entry partner): as the sequence (P54619 whole entry partner) above

With `O=S(=O)(c1ccc(-c2ccc(-c3cc4nc(O[C@@H]5CO[C@H]6[C@@H]5OC[C@H]6O)[nH]c4cc3Cl)cc2)cc1)C1CCNCC1` [Example 79], in test [1], the maximal effect (Emax) turned out to be 381% and the EC50 is 9 nM.
For `O=C1NCCC1c1ccc(-c2ccc(-c3c(F)cc4[nH]c(O[C@@H]5CO[C@H]6[C@@H]5OC[C@H]6O)nc4c3F)cc2)cc1` (stereo partly drawn) [Example 40] the same measures were 364% and 5 nM.
As for `O=C(O)C1CC1c1ccc(-c2ccc(-c3cc4nc(O[C@@H]5CO[C@H]6[C@@H]5OC[C@H]6O)[nH]c4cc3Cl)cc2)cc1` (stereo partly drawn) [Example 57], in test [1], the Emax was 356% and the EC50 stood at 8 nM.
As for `CS(=O)(=O)c1ccc(-c2ccc(-c3cc4nc(O[C@@H]5CO[C@H]6[C@@H]5OC[C@H]6O)[nH]c4cc3Cl)cc2)cc1` [Example 6], in test [2], the “% Maximum AMP Activation of human AMPK Complex 1” value (“% Maximum AMP Activation” below) is given as 367% and the EC50 was found to be 14 nM.
For `CC(C)(O)c1ccc(-c2ccc(-c3c(F)cc4[nH]c(O[C@@H]5CO[C@H]6[C@@H]5OC[C@H]6O)nc4c3F)cc2)cc1` [Example 15], in test [2], the “% Maximum AMP Activation” value is listed as 416% and the EC50 came to 18 nM.
Taken in the same sequence, the figures for `OCc1ccc(-c2ccc(-c3c(F)cc4[nH]c(O[C@H]5COC6C5OC[C@@H]6O)nc4c3F)cc2)cc1` (stereo partly drawn) [Example 18, (3S,6S)-6-((4,6-difluoro-5-(4′-(hydroxymethyl)-[1,1′-biphenyl]-4-yl)-1H-benzo[d]imidazol-2-yl)oxy)hexahydrofuro[3,2-b]furan-3-ol] were 314% and 6 nM.
For the compound `O[C@@H]1CO[C@H]2[C@@H]1OC[C@H]2Oc1nc2cc(-c3ccc(-c4ccc(-n5ccnn5)cc4)cc3)c(Cl)cc2[nH]1` [Example 73], in test [1], the maximum response (Emax) stood at 384% and the EC50 came out at 7 nM.
For `Oc1ccnc(-c2ccc(-c3ccc(-c4cc5nc(O[C@@H]6CO[C@H]7[C@@H]6OC[C@H]7O)[nH]c5cc4Cl)cc3)cc2)n1` [Example 68] the same measures were 344% and 3 nM.
For the compound `O[C@@H]1CO[C@H]2[C@@H]1OC[C@H]2Oc1nc2cc(-c3ccc(-c4ccccc4)cc3)c(Cl)cc2[nH]1` [Example 8], in test [2], the “% Maximum AMP Activation” value is reported as 368% and the EC50 is 32 nM.
Regarding `O[C@@H]1CO[C@H]2[C@@H]1OC[C@H]2Oc1nc2cc(-c3ccc(-c4ccc(C5CNCCO5)cc4)cc3)c(Cl)cc2[nH]1` (stereo partly drawn) [Example 67], in test [1], the Emax came out at 324% and the EC50 stood at 4 nM.
As to `NC(=O)c1ncn([C@@H]2O[C@H](CO)[C@@H](O)[C@H]2O)c1N` [AICAR], the blood glucose reduction in test [3] is reported as 35%.
Take `O[C@@H]1CO[C@H]2[C@@H]1OC[C@H]2Oc1nc2cc(-c3ccc(-c4ccc(-n5cccn5)cc4)cc3)c(Cl)cc2[nH]1` [Example 74]: in test [1], the Emax amounted to 369% and the EC50 came to 16 nM.
Taken in the same sequence, the figures for `O=c1ncn(-c2ccc(-c3ccc(-c4cc5nc(O[C@@H]6CO[C@H]7[C@@H]6OC[C@H]7O)[nH]c5cc4Cl)cc3)cc2)[nH]1` [Example 69] were 359% and 2 nM.
Taken in the same sequence, the figures for `CC(CO)(CO)c1ccc(-c2ccc(-c3cc4nc(O[C@@H]5CO[C@H]6[C@@H]5OC[C@H]6O)[nH]c4cc3Cl)cc2)cc1` [Example 71] were 352% and 5 nM.
`O=C(c1ccc(-c2ccc(-c3c(F)cc4[nH]c(O[C@H]5COC6C5OC[C@@H]6O)nc4c3F)cc2)cc1)N1CC[C@@H](O)C1` (stereo partly drawn) [Example 19, (4′-(4,6-difluoro-2-(((3S,6S)-6-hydroxyhexahydrofuro[3,2-b]furan-3-yl)oxy)-1H-benzo[d]imidazol-5-yl)-[1,1′-biphenyl]-4-yl)((R)-3-hydroxypyrrolidin-1-yl)methanone]: in test [2], the “% Maximum AMP Activation” value is listed as 232% and the EC50 turned out to be 35 nM.
Regarding `CNC(=O)c1ccc(-c2ccc(-c3c(F)cc4[nH]c(O[C@@H]5CO[C@H]6[C@@H]5OC[C@H]6O)nc4c3F)cc2)cc1` [Example 46], in test [1], the Emax is 364% and the EC50 worked out at 2 nM.
For `O[C@@H]1CO[C@H]2[C@@H]1OC[C@H]2Oc1nc2c(F)c(-c3ccc(-c4ccc(C5CNCCO5)cc4)cc3)c(F)cc2[nH]1` (stereo partly drawn) [Example 34] the same measures were 263% and 5 nM.
As to `CNC(=O)c1ccc(-c2ccc(-c3cc4nc(O[C@@H]5CO[C@H]6[C@@H]5OC[C@H]6O)[nH]c4cc3Cl)cc2)cc1` [Example 76], in test [1], the Emax turned out to be 386% and the EC50 was 5 nM.
With `O=C1NCCC1c1ccc(-c2ccc(-c3cc4nc(O[C@@H]5CO[C@H]6[C@@H]5OC[C@H]6O)[nH]c4cc3Cl)cc2)cc1` (stereo partly drawn) [Example 83], in test [1], the maximum response (Emax) was 365% and the EC50 came out at 5 nM.
For `O=C(O)C1CC1c1ccc(-c2ccc(-c3c(F)cc4[nH]c(O[C@@H]5CO[C@H]6[C@@H]5OC[C@H]6O)nc4c3F)cc2)cc1` (stereo partly drawn) [Example 26] the same measures were 350% and 5 nM.
For `Oc1ccnc(-c2ccc(-c3ccc(-c4c(F)cc5[nH]c(O[C@@H]6CO[C@H]7[C@@H]6OC[C@H]7O)nc5c4F)cc3)cc2)n1` [Example 41] the same measures were 380% and 3 nM.
Taken in the same sequence, the figures for `N=c1nc(N)[nH]n1-c1ccc(-c2ccc(-c3cc4nc(O[C@@H]5CO[C@H]6[C@@H]5OC[C@H]6O)[nH]c4cc3Cl)cc2)cc1` [Example 77] were 368% and 8 nM.
Consider `O[C@@H]1CO[C@H]2[C@@H]1OC[C@H]2Oc1nc2c(F)c(-c3ccc(-c4ccc(-n5ccnn5)cc4)cc3)c(F)cc2[nH]1` [Example 43], for which, in test [1], the Emax stood at 341% and the concentration giving a half-maximal response (EC50) came to 3 nM.
Taken in the same sequence, the figures for `N=c1nc(N)[nH]n1-c1ccc(-c2ccc(-c3c(F)cc4[nH]c(O[C@@H]5CO[C@H]6[C@@H]5OC[C@H]6O)nc4c3F)cc2)cc1` [Example 47] were 348% and 4 nM.
For `CC(CO)(CO)c1ccc(-c2ccc(-c3c(F)cc4[nH]c(O[C@@H]5CO[C@H]6[C@@H]5OC[C@H]6O)nc4c3F)cc2)cc1` [Example 33] the same measures were 316% and 5 nM.
`O[C@@H]1CO[C@H]2[C@@H]1OC[C@H]2Oc1nc2c(F)c(-c3ccc(-c4ccccc4)cc3)c(F)cc2[nH]1` [Example 1, (3R,3aR,6R,6aR)-6-((5-([1,1′-biphenyl]-4-yl)-4,6-difluoro-1H-benzo[d]imidazol-2-yl)oxy)hexahydrofuro[3,2-b]furan-3-ol]: in test [2], the “% Maximum AMP Activation” value is 636% and the EC50 turned out to be 51 nM.

Usually Emax stands for the size of the effect at its maximum, as opposed to the concentration needed. For orientation: EC50 means the concentration giving half of the maximal effect.
